From patent US20230292776A1, “GAS PHASE TREATMENT OF PRODUCE” (priority 2022, published 2023)

Tested on: Botrytis cinerea (Bc)
Test: Antifungal activity of AITC vapor and coating agent against Botrytis cinerea (Bc) in strawberries
Assay type: in vivo
Details: 30 minutes
Method: Example 13. The antifungal activity of AITC vapor against Bc in strawberries was tested. All samples were wounded by making a 3 mm deep puncture in the skin. Samples were infected by dispensing 1000 Bc spores suspended in 10 μL of water in the wound. Samples were then incubated at ambient temperature, imaged, and assessed for mold over the following 3 days. The test group consisted of strawberries that were: uninfected and untreated; infected and untreated; and exposed for 30 minutes to the vapor of 125 uL AITC dispensed on Whatman filter paper. […] The infection rates in the initially uninfected sample indicate that the step involving the initial infection of the wound by dispensing the Bc spores may not be necessary to promote infection in the test groups.
Example 14. The antifungal activity of a range of AITC vapor concentrations against Bc in strawberries was tested. Samples were treated by exposure for 30 minutes to the vapor of a range of volumes of AITC disposed on a filter paper disc, then incubated at ambient temperature, imaged, and assessed for mold over the following 6 days. Test groups consisted of strawberries that were untreated and strawberries exposed to the vapor of 62.5 μL, 125 μL, 250 μL, and 500 μL of AITC. […] On day 6, 83% of the untreated control strawberries were infected, 100% of the 62.5 μL AITC dose strawberries were infected, 13% of the 125 μL AITC dose strawberries were infected, and 0% of the 250 and 500 μL AITC dose strawberries were infected. For strawberries incubated at room temperature, all of the AITC doses above 62.5 μL were effective at preventing mold, with doses above 125 μL substantially eliminating mold.
Example 15. The antifungal activity of AITC vapor under different exposure conditions against Bc in strawberries was tested. Test groups consisted of strawberries that were untreated and treated by exposure for 30 minutes to the vapor of 125 μL of AITC disposed on a filter paper disc. Test groups were then incubated in either open or closed containers at 4° C., imaged, and assessed for mold over the following 14 days. […] All samples were free of mold through 7 days. On day 12, 16.7% of the open air controls were infected, 29.2% of closed container controls were infected, and 0% of the AITC treated were infected. On day 14, 33.3% of the open air controls were infected, 41.7% of closed container controls were infected, 0% of the open air AITC treated were infected, and 4.2% of the closed container AITC treated were infected. For strawberries incubated at 4° C., AITC treatment was effective in reducing the incidence of mold over a two week period. While ⅓ of the open air untreated samples were infected, none of the open air AITC-treated were infected. Over 40% of the closed container controls were infected. A single strawberry was infected in the closed container AITC-treated test group.
Example 16. The antifungal activity of AITC vapor against Bc in strawberries treated with a coating agent (95 wt % glyceryl monostearate and 5 wt % sodium stearate) and exposed to vapor in clamshells was tested. Test groups consisted of strawberries that were: untreated; dipped in 40 g/L solution of the coating agent; exposed for 30 minutes to the vapor of 125 μL of AITC disposed on a filter paper disc; and dipped in 40 g/L solution of the coating agent and exposed for 30 minutes to the vapor of 125 μL of AITC disposed on a filter paper disc. Samples were treated, incubated at ambient temperature, imaged, and assessed for mold over the following 4 days. […] On day 3, 52.8% of the controls were infected, 42.1% of the coating agent were infected, 26.3% of the AITC were infected, and 9.3% of the coating agent+AITC were infected. On day 4, 88.9% of the controls were infected, 76.3% of the coating agent were infected, 71% of the AITC were infected, and 34.9% of the coating agent+AITC were infected. […] Bowl dipping in the coating solution also presented challenges for drying around the calyx.
Example 17. […]

**Q.** For `C=CCN=C=S` [AITC, allyl isothiocyanate], which “visible mold on strawberries” value (Example 13, 125 uL, after 24 hours) is on record?
**A.** no mold was visible

**Q.** What about the “fraction of samples showing visible mold” value (Example 13, 125 uL, after 48 hours) of the same compound?
**A.** ⅛

**Q.** What about the “fraction of samples showing visible mold” value (Example 13, 125 uL, after 72 hours) of the same compound?
**A.** ¼

**Q.** And the strawberries infected (Example 14, 62.5 μL dose, day 6, ambient temperature)?
**A.** 100%

**Q.** What about the strawberries infected (Example 14, 125 μL dose, day 6, ambient temperature) of the same compound?
**A.** 13%

**Q.** And the strawberries infected (Example 14, 250 and 500 μL dose, day 6, ambient temperature)?
**A.** 0%

**Q.** And the strawberries infected (Example 15, 125 μL, 4° C., closed container, day 14)?
**A.** 4.2%

**Q.** And the strawberries infected (Example 15, 125 μL, 4° C., open air, day 14)?
**A.** 0%

**Q.** And the strawberries infected (Example 15, 125 μL, incubated at 4° C., day 12)?
**A.** 0%

**Q.** What about the strawberries infected (Example 16, clamshells, coating agent 40 g/L dip, AITC 125 μL, day 3) of the same compound?
**A.** 26.3%

**Q.** And the strawberries infected (Example 16, clamshells, coating agent 40 g/L dip, AITC 125 μL, day 4)?
**A.** 71%
